# Measurements reported in patent US20070270418A1, “Inhibitors of P38 and Methods of Using the Same” (priority 2003, published 2007).
# Molecular target: T1, p38γ (Homo sapiens, UniProt P53778)
# T1 construct: p38 MAP Kinases are recombinant human full-length proteins with an amino-terminal GST fusion; GST (N); purchased Upstate (Charlottesville, Va.); host or cells: E. coli
# T1 sequence (P53778 1-367): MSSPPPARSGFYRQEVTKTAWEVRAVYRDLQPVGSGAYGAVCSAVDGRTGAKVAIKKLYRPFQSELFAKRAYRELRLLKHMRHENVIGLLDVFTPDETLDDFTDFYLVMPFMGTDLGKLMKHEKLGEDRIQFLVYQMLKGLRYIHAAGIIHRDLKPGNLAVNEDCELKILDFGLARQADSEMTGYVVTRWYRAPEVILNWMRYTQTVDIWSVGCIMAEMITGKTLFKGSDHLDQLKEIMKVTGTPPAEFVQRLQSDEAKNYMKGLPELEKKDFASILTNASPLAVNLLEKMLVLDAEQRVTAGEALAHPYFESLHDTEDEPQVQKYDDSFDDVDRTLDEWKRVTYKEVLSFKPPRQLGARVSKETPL
# Test: Kinase selectivity, ATF2 phosphorylation ELISA
# Assay type: biochemical
# Protocol: All kinases and the substrate ATF2 are acquired from Upstate (Charlottesville, Va.). p38 MAP Kinases are recombinant human full-length proteins with an amino-terminal GST fusion, expressed in and purified from E. coli. ATF2 is a GST fusion protein containing amino acids 19-96 of human ATF2 expressed in E. coli. All proteins were aliquoted and stored at −80° C.
# p38 MAP Kinase assays are performed using an assay buffer containing 25 mM HEPES, pH 7.5, 10 mM MgCl2, 2 mM DTT, 20 mM β-glycerophosphate, 0.1 mM Na3VO4, 40 μM ATP and 1.25 μM of ATF2, together with 6 ng of p38α protein, 12 ng p38β protein, 1.5 ng p38γ, or 0.4 ng JNK2α2. Compounds are serially diluted in DMSO and 2 μL of test compound at 25× final concentration is used. The vehicle control receives DMSO only. Test compounds are pre-incubated with 20 μl of enzyme in kinase buffer (25 mM HEPES, pH 7.5, 10 mM MgCl2, 2 mM DTT, 20 mM 3-glycerophosphate and 0.1 mM Na3VO4) at room temperature for 15 minutes. […] The reactions are incubated for 30 minutes at 37° C. and terminated by the addition of 18 μl of 200 mM EDTA. An ELISA method is used to measure the phosphorylation of ATF2 at Thr 69. High binding 96-well plates (Corning 3369) are coated with 50 μl of kinase reaction for 1 hour at 37° C. The coated plates are washed with 200 μl washing buffer (25 mM Tris HCl, pH 8.3, 192 mM glycine, 0.1% SDS and 0.05% Tween-20) three times. The plates are then washed three times with SuperBlock in TBS (Pierce, 37535). After blocking, plates are incubated with 50 μl of rabbit anti-phospho-ATF2 antibody (Cell Signaling, 9221 L, 1:500) for 30 minutes at 37° C. Plates are washed three times with washing buffer prior to incubation with 50 μl HRP-conjugated goat anti-rabbit antibody (Cell Signaling, 7074, 1:500) for 30 minutes at 37° C. Plates are then washed three times with washing buffer before incubation with 50 μl of Ultra TMB-ELISA (Pierce, 34028) for 8 minutes at room temperature. Finally, 50 μl of phosphoric acid (1 M) is added to stop reactions and plate absorbance is read at 450 nm on a SpectraMax 250 plate reader.
# A selectivity panel is used to test the cross-reactivity of compounds of the invention with the β and γ isoforms of p38 MAP kinase, Src^p60 and JNK2α2. The p38β, p38γ, and JNK2α2 assays are described in Example 4. The Src^p60 assay measures the ability of compounds to inhibit Src^p60-catalyzed phosphorylation of a peptide substrate.
row,Structure (SMILES),IC50 [µM]
1,CS(=O)(=O)N1CCC(Nc2nccc(-c3c(-c4ccc(F)cc4)nc4occn34)n2)CC1 [CCLXXIX],> 100
2,CN1[C@@H]2CC[C@H]1C[C@@H](Nc1nccc(-c3c(-c4ccc(F)cc4)nc4occn34)n1)C2 [CCLXXXI],> 100
3,Fc1ccc(-c2nc3occn3c2-c2ccnc(N[C@@H]3CN4CCC3CC4)n2)cc1 [LXXI],> 519
4,Fc1ccc(-c2nc3occn3c2-c2ccnc(NC3CN4CCC3CC4)n2)cc1 (centres unmarked) [LXXXIV],> 81.3
5,Fc1ccc(-c2nc3occn3c2-c2ccnc(N[C@H]3CN4CCC3CC4)n2)cc1 [LXXXVII],59.5
